Experiments:
[1] = Bromphenol Blue (BPB) Extraction Method, spectrophotometric at 595 nm (modified CTM 0824), on treated fabric; type: physicochemical; conditions: for Boiling Durability - % BPB Extraction: Boil 30 min., Table XIV; for Boiled in H20 % Extraction / Change % Extraction / No Boil % Extraction: Table XI
E. coli = assay: CTM-0923 Dynamic Shake Flask Test (antimicrobial efficacy of treated fabric); type: cell-based; design: concentration or dose not given beside the values
Protocol: Sample Preparation: Fabric samples were obtained from the JoAnn fabric chain and were commercial fabrics. […] The treatment solutions were allowed to hydrolyze from the trimethoxysilyl form to the trisilanol form before adding the fabrics. This takes only a few minutes to essentially complete. The solution temperature was raised to 100° C. before treating the fabrics for 60 seconds by immersion in the solutions with moderate agitation of the solution within the flask. After removing the samples from the hot solution, they were nip rolled to remove excess liquid. […] The samples were air dried before testing unless otherwise noted. The Extraction, stated in percent, was measured using the Bromphenol Blue Extraction Method using spectrophotometric determination. This method is CTM 0824, which has been modified for use herein in the following manner. The chlorinated solvent has been eliminated and the wavelength is 595 nm. Further, Dow Corning® […] has been substituted for the Triton.RTM. X-100 wetting agent of the test. What is measured is the diminution of the BPB Absorbance at 595 nm relative to the BPB standard solution and it is reported in percent Extraction. Antimicrobial efficacy was determined using the CTM-0923 Dynamic Shake Flask Test unless otherwise stated. Samples were air dried before testing. The % extraction was measured using the BPB extraction Method using spectrophotometric determination at 595 nm. Antimicrobial efficacy was determined, when applicable, using the ASTM CTM 0923 Dynamic Shake Flask Test. The substrate may be either wet or dry. The testing results can be found on Tables XI and XII, respectively, infra.

CCCCCCCCCCCCCCCCCC[N+](C)(C)CCC[Si](OC)(OC)OC.[Cl-] [AMT, N, N-dimethyl-N-Octadecyl-3-(trimethoxysilyl)propanaminium chloride]
% EXTRACTION CHANGE ([1]; PET, boiled vs not boiled, Table XV): −50%
% BPB EXTRACTION @ 595 nm ([1]; PET, boiled, Table IX): 14%
% BPB EXTRACTION @ 595 nm ([1]; PET, boiled, Table VII): 91%
% Extraction @ 595 nm ([1]; PET, not boiled, Table I): 89%
% BPB EXTRACTION @ 595 nm ([1]; PET, not boiled, Table IX): 87%
% Extraction @ 595 nm ([1]; PET, not boiled, Table VI): 89%
% BPB EXTRACTION @ 595 nm ([1]; PET, not boiled, Table VII): 93%
Boiling Durability % BPB EXTRACTION @ 595 nm ([1]; PET, not boiled, Table XVII): 83%
% BPB EXTRACTION @ 595 nm ([1]; PET, not boiled, oven dried 130° C. 5 minutes, Table XV): 86%
% BPB EXTRACTION @ 595 nm ([1]; PPNW, boiled 30 minutes, Table XV): 45%
Boiling Durability % BPB EXTRACTION @ 595 nm ([1]; PPNW, boiled 30 minutes, Table XVII): 37%
% EXTRACTION CHANGE ([1]; PPNW, boiled vs not boiled, Table XV): −40%
% EXTRACTION CHANGE ([1]; PPNW, boiled vs not boiled, Table XVII): −40%
Boiling Durability % BPB EXTRACTION @ 595 nm ([1]; PPNW, not boiled, Table XVII): 77%
% BPB EXTRACTION @ 595 nm ([1]; PPNW, not boiled, oven dried 130° C. 5 minutes, Table XV): 85%
% Extraction @ 595 nm ([1]; RAYON, boiled 30 minutes, Table I): 35%
% BPB EXTRACTION @ 595 nm ([1]; RAYON, boiled 30 minutes, Table III): 50%
% Extraction @ 595 nm ([1]; RAYON, boiled 30 minutes, Table VI): 44%
% BPB Extraction (change on boiling) ([1]; RAYON, boiled vs not boiled, Table I): −55%
% EXTRACTION CHANGE ([1]; RAYON, boiled vs not boiled, Table III): −44%
% EXTRACTION CHANGE ([1]; RAYON, boiled vs not boiled, Table IX): −40%
EXTRACTION CHANGE ([1]; RAYON, boiled vs not boiled, Table VI): −50%
% EXTRACTION CHANGE ([1]; RAYON, boiled vs not boiled, Table VII): −50%
% BPB EXTRACTION @ 595 nm ([1]; RAYON, boiled, Table IX): 52%
% BPB EXTRACTION @ 595 nm ([1]; RAYON, boiled, Table VII): 42%
% Extraction @ 595 nm ([1]; RAYON, not boiled, Table I): 90%
% BPB EXTRACTION @ 595 nm ([1]; RAYON, not boiled, Table III): 94%
% BPB EXTRACTION @ 595 nm ([1]; RAYON, not boiled, Table IX): 92%
% Extraction @ 595 nm ([1]; RAYON, not boiled, Table VI): 94%
% BPB EXTRACTION @ 595 nm ([1]; RAYON, not boiled, Table VII): 92%
Boiling Durability - % BPB Extraction ([1]; Rayon): 9.88%
Boiling Durability - % BPB Extraction ([1]; Rayon, treatment at pH = 11): 21.36%
Strike Rate - % BPB Extraction ([1]; Rayon, No Boil, treatment at pH = 11, Table XIII): 19.5%
Boiled in H20 % Extraction ([1]; cure: 130° C. for 5 Min): 21%
Change % Extraction ([1]; cure: 130° C. for 5 Min): −36%
No Boil % Extraction ([1]; cure: 130° C. for 5 Min): 57%
Boiled in H20 % Extraction ([1]; cure: Air Dried): 21%
Change % Extraction ([1]; cure: Air Dried): −46%
No Boil % Extraction ([1]; cure: Air Dried): 67%
Efficacy - % Reduction (E. coli; ACRYLIC/MODACRYLIC, boiled 30 minutes, Table V): 84%
Efficacy - % Reduction (E. coli; ACRYLIC/MODACRYLIC, not boiled, Table V): 90%
Efficacy - % Reduction (E. coli; COTTON, boiled 30 minutes, Table V): 99%
DSF - % REDUCTION (E. coli; COTTON, boiled 30 minutes, Table VIII): 99%
DSF - % REDUCTION (E. coli; COTTON, boiled, Table X): 93%
Efficacy - % Reduction (E. coli; COTTON, not boiled, Table V): 99%
DSF - % REDUCTION (E. coli; COTTON, not boiled, Table VIII): 99%
DSF - % REDUCTION (E. coli; COTTON, not boiled, Table X): 89%
Efficacy - % Reduction (E. coli; NYLON, boiled 30 minutes, Table II): 84%
Efficacy - % Reduction (E. coli; NYLON, boiled 30 minutes, Table V): 19%
DSF - % REDUCTION (E. coli; NYLON, boiled 30 minutes, Table VIII): 22%
DSF - % REDUCTION (E. coli; NYLON, boiled, Table X): 99%
Efficacy - % Reduction (E. coli; NYLON, not boiled, Table II): 90%
Efficacy - % Reduction (E. coli; NYLON, not boiled, Table V): 99%
DSF - % REDUCTION (E. coli; NYLON, not boiled, Table VIII): 99%
DSF - % REDUCTION (E. coli; NYLON, not boiled, Table X): 99%
Efficacy - % Reduction (E. coli; PET, boiled 30 minutes, Table II): 99%
DSF - % REDUCTION (E. coli; PET, boiled 30 minutes, Table VIII): 91%
DSF - % REDUCTION (E. coli; PET, boiled, Table X (untreated control 50)): 74%
Efficacy - % Reduction (E. coli; PET, not boiled, Table II): 99%
DSF - % REDUCTION (E. coli; PET, not boiled, Table VIII): 99%
DSF - % REDUCTION (E. coli; PET, not boiled, Table X (untreated control 50)): 79%
Efficacy - % Reduction (E. coli; RAYON, boiled 30 minutes, Table II): 19%
DSF - % REDUCTION (E. coli; RAYON, boiled 30 minutes, Table VIII): 94%
DSF - % REDUCTION (E. coli; RAYON, boiled, Table X): 99%
Efficacy - % Reduction (E. coli; RAYON, not boiled, Table II): 99%
DSF - % REDUCTION (E. coli; RAYON, not boiled, Table VIII): 99%
DSF - % REDUCTION (E. coli; RAYON, not boiled, Table X): 99%

— US20030175438A1, “Treatments of solid substrates to enhance durability of treatments placed thereon” (priority 2002, published 2003)
